In US20210079384A1, “NON-INVASIVE DETECTION OF RESPONSE TO A TARGETED THERAPY” (The Johns Hopkins University, priority 2018, published 2021):

Key:
[1] = system: advanced non-small cell lung cancer (NSCLC) patients; test: Progression-free survival by RECIST 1.1 CT assessment in NSCLC patients on TKI therapy; format: in vivo, human; settings: single patient CGPLLU2 with metastatic disease; osimertinib 80 mg PO daily; subsequently developed resistance in the primary lung lesion
Description: (§1) Serial blood was drawn from fifteen advanced non-small cell lung cancer (NSCLC) patients undergoing treatment with targeted tyrosine kinase inhibitors (TKIs), afatinib or osimertinib, to directly detect somatic sequence and structural alterations in cfDNA, to monitor ctDNA dynamics during therapy, to determine cell-free tumor burden, and to predict clinical outcome (FIG. 1). Liquid biopsies were obtained from 11 radiographic responders and four radiographic non-responders immediately prior to treatment (baseline), 6-22 days post treatment, and at serial time points until disease progression. The ultrasensitive targeted error correction sequencing (TEC-Seq) approach (6) was used as well as whole genome sequencing to identify tumor-derived sequence alterations and chromosomal copy number changes in cell-free DNA (cfDNA). […] Next, changes in cfTL were evaluated within hours to days after treatment compared to baseline and assessed whether cfTL could serve as a marker of patient outcome.
For each patient, ˜5 ml of plasma were collected immediately prior to therapy (baseline), at 6-22 days after therapy initiation (median 16 days), and at additional serial time points until disease progression was confirmed by radiographic assessment (Tables S1 and S2). Target lesions were evaluated before therapy with CT/MRI imaging and approximately every six weeks until disease progression. […]

[2] = system: advanced non-small cell lung cancer (NSCLC) patients; test: Cell-free tumor load (cfTL) in plasma cfDNA by TEC-Seq during TKI therapy; format: in vivo, human; settings: single patient CGPLLU2 with metastatic disease; osimertinib 80 mg PO daily
Description: as §1, with “progression.” for “progression. The ultrasensitive targeted error correction sequencing (TEC-Seq) approach (6) was used as well as whole genome sequencing to identify tumor-derived sequence alterations and chromosomal copy number changes in cell-free DNA (cfDNA).”, “outcome. […]” for “outcome.”
For all patients, serial blood draws were collected over the course of treatment with targeted inhibition for isolation of plasma and extraction of cell-free DNA (cfDNA) for genomic analyses. Time points were analyzed immediately prior to treatment for baseline assessment as well as 6-22 days post treatment and at serial time points until disease progression (Table S2).
Sequence and copy number alterations were detected in cfDNA for each patient at each time point analyzed and used a tiered approach to evaluate tumor burden. […]

Q: With C=CC(=O)Nc1cc(Nc2nccc(-c3cn(C)c4ccccc34)n2)c(OC)cc1N(C)CCN(C)C [osimertinib] as the molecule, how does the progression-free survival [1] read?
A: 7.0 months

Q: And the “change of cfTL from baseline to day 10” value [2]?
A: rapid decline
